According to patent US20260053799A1, “COMPOUNDS FOR TREATING CANCER” (EVEXTA BIO, priority 2022, published 2026):
Entries after “also recorded” stand apart in the source; their conditions may differ.

Legend:
[1] = Plasma and brain concentration after dosing (blood brain barrier crossing), Table A; format: in vivo; conditions: for Concentration: dose 25 mg/kg, administered orally
Description: The present disclosure also encompasses the advantageous therapeutic use of a quinazoline carboxamide azetidine compound, preferably of 4-[(S)-2-Azetidin-1-yl-1-(4-chloro-3-trifluoromethyl-phenyl)-ethylamino]-quinazoline-8-carboxylic acid amide (M2698) or a pharmaceutically acceptable polymorph, enantiomer, stereoisomer, salt, solvate or tautomer thereof, for treating a metastasized cancer, e.g., a cancer that has spread to the brain, a bone, a lung, the liver, or the central nervous system.

MCF7 tumors = assay: Antitumor efficacy in xenograft model of SCID-CB17 mice implanted with MCF7 cells; format: in vivo; conditions: per os, qd 5 weeks
Experimental: Antitumor efficacy of anticancer compounds in a xenograft model of SCID-CB17 mice implanted with MCF7 cells, and assessment of the substrates phosphorylation.
MCF7 cells are amplified in vitro in complete medium prior implantation. 24h prior cells injection, the mice are implanted with an estrogen pellet (Innovative Research of America at 0.18 mg/pellet).
On the day of injection, cells are harvested, counted thanks to a trypan blue viability dye (acceptability cut-off ≥80% viability), and resuspended in 50:50 PBS:Matrigel at the appropriate concentration. The cells are then injected subcutaneously in the right flank at 5.10^6 cells/mouse in 200 μL PBS:Matrigel within 30 minutes after harvesting, in 120 mice. […]
In order to assess the effectiveness of the compounds on tumorigenesis, tumor volume are measured twice per week for 8 weeks and mice are weighed once per week for 8 weeks.
The sizes of the primary tumors are measured using calipers and the tumor volume (TV) is extrapolated to a sphere using the formula TV=4/3π×r3, by calculating the mean radius from the two measurements. […]

[2] = Machl et al., 2016; cited from earlier work
[3] = test system: ER+ and HER2+breast cancer; conditions: patients, cited from earlier work

Concentration ([1]; Brain) [ng/mL]	Concentration ([1]; Plasma) [ng/mL]	Ability to cross the blood brain barrier ([1]; administered orally at 25 mg/kg of body weight)	Structure (SMILES)	MCF7 tumor growth (tumor volume) (MCF7 tumors; M2698 20 mg/kg/day, 20 mg/kg/day)	Crosses the blood-brain barrier [2]	Tolerability ([3]; monotherapy and combined with trastuzumab or tamoxifen)	Efficacy of monotherapy ([3]; monotherapy)	MCF7 tumor growth (tumor volume) (MCF7 tumors; Elacestrant 50 mg/kg/day)
4000	1600	able to cross the blood brain barrier	NC(=O)c1cccc2c(N[C@H](CN3CCC3)c3ccc(Cl)c(C(F)(F)F)c3)ncnc12 [M2698, 4-[(S)-2-Azetidin-1-yl-1-(4-chloro-3-trifluoromethyl-phenyl)-ethylamino]-quinazoline-8-carboxylic acid amide]	strong antitumor efficacy; also recorded: strongly inhibited tumor growth	crosses the blood-brain barrier	well tolerated	modest	–
–	–	–	CCNCCc1ccc(CN(CC)c2cc(OC)ccc2[C@@H]2CCc3cc(O)ccc3C2)cc1 [Elacestrant, (R)-6-(2-(ethyl(4-(2-(ethylamino)ethyl)benzyl)amino)-4-methoxyphenyl)-5,6,7,8-tetrahydronaphthalen-2-ol, reference compound]	–	–	–	–	weakly inhibited
